Literature values, collected in patent publication US9211341B2, “Method of manufacturing a pharmaceutical composition having chelating type complex micelles” (Original BioMedicals Co., Ltd, priority 2011, dated 2015).

blood half-life (βt1/2) (after injection): 8.8 min
time to reach steady state after distribution to tissues and dephosphorylation (after injection): about 10 minutes
concentration in normal cells (kidney, lung, liver, skin, bone marrow, intestine, spleen) relative to cancer cells (following injection): 10 times
plasma clearance, fraction cleared (within 6 minutes): approximately 90%
Structure (SMILES): NCCCNCCSP(=O)(O)O [amifostine]
time at which the cytoprotective effect appears (after injection): 5 to 10 min
